# According to PMC11065314, “Identification of compounds that cause axonal dieback without cytotoxicity in dorsal root ganglia explants and intervertebral disc cells with potential to treat pain via denervation” (PLOS ONE, 2024):
# Values joined by “and” are separate entries in the source; they are usually repeats but may differ in a detail not shown here. Identical values can stand only once. Counter-ions that a name gives are not always drawn. Like-named read-outs stand apart in the source and are kept apart here.
# Tests used:
# Human NP cells = assay: NP cell metabolic activity (AlamarBlue reduction); type: cell-based;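 as to AB reduction per cell (%): percent AlamarBlue reduction per manufacturer divided by estimated total cells per well from LIVE/DEAD counts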
# Description: Nucleus pulposus (NP) cells are native matrix-producing cells at the core of intervertebral discs. To repurpose axonal dieback compounds to denervate aberrant nerve fibers in discs related to chronic LBP, the cytocompatibility of these compounds with NP cells must be evaluated. Human NP cells (Sciencell, 4800) from donor 1 (Lot #5954) and donor 2 (Lot# 21579) were cultured according to previously established protocol in our lab adapted from manufacturer’s instructions. Briefly, passage three cells from both donors were expanded in Poly-L-lysine (PLL) (Sciencell, 413) coated T75 flasks. Cells were then lifted and reseeded at 5,000 cells/cm^2 onto two PLL-coated 48-well plates (Greiner Bio-One, 677180) and allowed to attach overnight before treating with Pyr or Vcr. One plate was used for LIVE/DEAD staining and the other plate was used for AlamarBlue assay as described below. Complete NP cell media (Sciencell, 4801) containing basal media supplemented with 1% penicillin-streptomycin, 1% growth supplement and 2% FBS were used for maintaining cells in culture. To mimic the hypoxic disc environment, NP cells were cultured in a hypoxia chamber (Stem Cell Technologies, 27310) with 5% CO2, 3.5% O2, 91.5% N2 (Airgas) during the entire culture and treatment incubation period.
# Pyr stock solution was diluted in complete NP media to achieve final concentrations of 500 μM, 1 mM and 2 mM Pyr. 16.9 μg/mL and 169 μg/mL Vcr stock solutions were prepared in 1X PBS then diluted in complete NP media to achieve final concentrations of 10, 25, 50, 100 nM and 200, 500 nM, respectively. Cells were incubated with 250 μL of final treatment solutions in duplicate wells per donor for three days. Cells in negative control group were incubated with 250 μL of complete NP media with 0.55% v/v 1X PBS as solvent control. On day 3 post-treatment, brightfield images at 4X magnification were taken using a BioTek Cytation1 Plate Imager (Agilent) to verify cell proliferation and observe cell morphology. Three experimental replicates were performed for each cell donor.
# On day 3 of incubation with drugs, 25 μL (10% v/v of media volume) of AlamarBlue HS cell viability reagent (Thermo Fisher Scientific, A50100) were added into each well. Cells were incubated with the AlamarBlue reagent for 2 hours at 37°C under hypoxia then 60 μL aliquots of cell media were removed in duplicates into a 96-well plate. The absorbance at 570 and 600 nm were read using a microplate reader (Agilent) and calculations for AlamarBlue reduction were calculated according to the manufacturer’s protocol. To account for different cell confluency between donors and groups, AlamarBlue reduction was normalized to estimated total number of cells per well obtained from LIVE/DEAD staining. Cellular metabolic activity in treated groups was reported as a ratio of normalized AlamarBlue reduction to PBS control group.
# rat DRG explants = assay: DRG cytotoxicity assessment using LDH assay; type: cell-based; conditions: for Cytotoxicity (%): female rat DRG explant, single well
# Description: (§1) 500 nM Imy and 10 nM Vcr were excluded from female rat DRG experiments while 500 nM Vcr and 1 mM Pyr were excluded from male rat DRG experiments due to insufficient DRG replicates with axon outgrowth. DRG media was removed from wells and transferred into a 96-well plate for pre-treat LDH cytotoxicity assay (see Methods below). 300 μL of media treatment solutions or solvent control solutions were added to wells. DRGs were incubated with treatment solutions for three days, and brightfield images at 4X magnification were taken using BioTek Cytation1 Plate Imager (Agilent) before treatment (day -1) and on days 1, 2 and 3 after treatment. DRGs from adult male and female rats were tested to determine if sex can affect axonal dieback. In total, 12 to 15 DRG replicates per group by sex harvested from n = 3 male and n = 3 female rats were tested.
# (§2) Lactate dehydrogenase (LDH) is a cytosolic enzyme present in all cells. Dissociated rat DRG neurons release LDH during tunicamycin-induced apoptosis. […] An ideal axonal dieback compound should cause axonal degeneration without neurotoxicity. was assessed on day 3 post-treat and normalized to pre-treat levels to account for variability in DRG size and growth and calculated as a percentage of cytotoxicity to lysed DRGs (positive control). 50 μL of pre-treatment and post-treatment media were aliquoted in duplicates into a 96-well plate. LDH activity in the media post-treat was assessed using the CyQUANT^TM LDH Cytotoxicity Assay Kit (Thermo Fisher Scientific, C20301) according to the manufacturer’s instructions. Briefly, 50 μL of Substrate Mix was added to each well and then incubated at room temperature for 30 minutes protected from light. 50 μL of Stop solution was added to each well and the absorbance at 490 nm and 680 nm was measured using a microplate reader (Agilent). LDH activity of each DRG was calculated as the difference between absorbance at 490 nm after subtracting the background absorbance at 680 nm. As a positive control, 13 female rat DRGs and 15 male rat DRGs were treated for three days with Lysis buffer solution, provided in the kit, diluted 1:5.45 in DRG media. The percentage of cytotoxicity was calculated following Eq 2. Pre-treat levels of LDH activity were subtracted from post-treat LDH activity in each DRG to remove baseline LDH activity then percentage of cytotoxicity compared to positive control lysed DRG LDH activity was calculated. Sex is a biological factor that can influence neurotoxicity. Thus, percentage of cytotoxicity of total 11 to 14 DRG replicates per group by sex from n = 3 male and n = 3 female rats were tested.
# (§3) Cytotoxicity(%)=(PosttreatLDHactivity)−(PretreatLDHactivity)/(MaximumLDHactivityfromlysedDRGs)−(PretreatLDHactivity)×100% (2)
# [1] = DRG cytotoxicity assessment using LDH assay; type: cell-based, rat; conditions: female, rat, rat dorsal root ganglion (DRG) explants, 100 nM, female rat DRG explant, single well
# Description: as §1, §2, §3
# [2] = tested on: dissociated DRG neurons from embryonic mice; design: method as in PMID 31484833; conditions: 40 nM; cited from earlier work
# adult rat DRG neurons = tested on: adult rat DRG neurons; design: method as in PMID 32388569; conditions: below 1000 nM; cited from earlier work
# adult rat DRG explants = type: cell-based
structure (smiles),measurement,setting,value
"CC[C@]1(O)C[C@H]2CN(CCc3c([nH]c4ccccc34)[C@@](C(=O)OC)(c3cc4c(cc3OC)N(C=O)[C@H]3[C@@](O)(C(=O)OC)[C@H](OC(C)=O)[C@]5(CC)C=CCN6CC[C@]43[C@@H]65)C2)C1 [Vcr, vincristine sulfate]",AB reduction per cell (%),"Human NP cells; 10 nM, donor 1, day 3, single wells (Exp, Rep)",0.002283% and 0.00154% and 0.001747% and 0.002442% and 0.00231% and 0.002706%
same,AB reduction per cell (%),"Human NP cells; 10 nM, donor 2, day 3, single wells (Exp, Rep)",0.001215% and 0.001339% and 0.005412% and 0.01334% and 0.005031% and 0.005908%
same,AB reduction per cell (%),"Human NP cells; 25 nM, donor 1, day 3, single wells (Exp, Rep)",0.001389% and 0.003739% and 0.002704% and 0.002205% and 0.001365% and 0.001406%
same,AB reduction per cell (%),"Human NP cells; 25 nM, donor 2, day 3, single wells (Exp, Rep)",0.003051% and 0.007629% and 0.005557% and 0.004909% and 0.001181% and 0.0009857%
same,AB reduction per cell (%),"Human NP cells; 50 nM, donor 1, day 3, single wells (Exp, Rep)",0.001753% and 0.001156% and 0.00138% and 0.00139% and 0.003609% and 0.003175%
same,AB reduction per cell (%),"Human NP cells; 50 nM, donor 2, day 3, single wells (Exp, Rep)",0.0005415% and 0.0008201% and 0.002435% and 0.002975% and 0.005792% and 0.00531%
same,AB reduction per cell (%),"Human NP cells; 100 nM, donor 1, day 3, single wells (Exp, Rep)",0.001416% and 0.0009649% and 0.001537% and 0.002073% and 0.00337% and 0.003265%
same,AB reduction per cell (%),"Human NP cells; 100 nM, donor 2, day 3, single wells (Exp, Rep)",0.0006846% and 0.0007833% and 0.00204% and 0.002057% and 0.009145% and 0.008838%
same,AB reduction per cell (%),"Human NP cells; 200 nM, donor 1, day 3, single wells (Exp, Rep)",0.001363% and 0.0008921% and 0.002395% and 0.003983% and 0.00365% and 0.004535%
same,AB reduction per cell (%),"Human NP cells; 200 nM, donor 2, day 3, single wells (Exp, Rep)",0.0005853% and 0.0004556% and 0.002302% and 0.00249% and 0.005313% and 0.004842%
same,AB reduction per cell (%),"Human NP cells; 500 nM, donor 1, day 3, single wells (Exp, Rep)",0.001679% and 0.00128% and 0.002381% and 0.004274% and 0.005712% and 0.005618%
same,AB reduction per cell (%),"Human NP cells; 500 nM, donor 2, day 3, single wells (Exp, Rep)",0.0008561% and 0.0008471% and 0.004331% and 0.0268% and 0.00643% and 0.009026%
same,Cellular metabolic activity compared to PBS control,"Human NP cells; 10 to 500 nM, donor 1 and 2, day 3",No significant differences were detected
same,Cytotoxicity (%),"rat DRG explants; 1 nM, 0.001 µM",6.189% and 9.7112% and 4.38%
same,"Percentage of DRG cytotoxicity, Mean (SD)","rat DRG explants; 10 nM, day 3, male rat DRGs only, relative to lysed DRGs",7.02 (4.36) %
same,Percentage of cytotoxicity less than lysed DRGs,"rat DRG explants; 100 nM, day 3",89.8%
same,Cytotoxicity (%),"rat DRG explants; 100 nM, 0.1 µM",11.901%
same,Cytotoxicity (%),"rat DRG explants; 500 nM, 0.5 µM",7.521% and 12.2818% and 15.3285%
same,Overall cytotoxicity lower compared to lysed DRGs,"rat DRG explants; all concentrations tested, day 3",at least 88%
same,"cytotoxicity at 3 days, 0.1 µM",[1],15.5%
same,Time to axon degeneration,[2],≤ 12 h
same,Time to complete axon fragmentation,[2],≤ 36 h
same,Cytotoxicity,adult rat DRG neurons,does not induce cytotoxicity
same,Axon length ratio compared to PBS control,adult rat DRG explants,significantly lower axon length ratio than PBS control
same,Day on which Caps axon length ratio threshold (0.45) was met,adult rat DRG explants,≤ 1 days
same,Original axon length left behind,adult rat DRG explants,less than 8.1%
same,Day on which Caps axon length ratio threshold (0.45) was met,adult rat DRG explants; 100 nM,≤ 2 days
